Data as given in patent US10323022B2, “Pyrrolidinyl urea, pyrrolidinyl thiourea and pyrrolidinyl guanidine compounds as TrkA kinase inhibitors” (Array BioPharma Inc., priority 2011, dated 2019).

Target: TrkA (Homo sapiens (Human), UniProt P04629)
Assay: TrkA Omnia Assay
Type: biochemical
Conditions: averaged IC50; 20 nM enzyme, 500 μM ATP, 10 μM peptide substrate
Summary of the method: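 Continuous fluorescent kinase read-out (ex 360 nm, em 485 nm) over 70 min, with initial rates fitted to 4- or 5-parameter logistic curves for IC50. Final conditions: 500 μM ATP, 10 μM Omnia Tyr Peptide #4, 20 nM TrkA, MOPS pH 7.5 buffer with MgCl2 and Triton X-100; enzyme and compound preincubated 10 min at ambient temperature.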

Chain of TrkA (P04629 33-796): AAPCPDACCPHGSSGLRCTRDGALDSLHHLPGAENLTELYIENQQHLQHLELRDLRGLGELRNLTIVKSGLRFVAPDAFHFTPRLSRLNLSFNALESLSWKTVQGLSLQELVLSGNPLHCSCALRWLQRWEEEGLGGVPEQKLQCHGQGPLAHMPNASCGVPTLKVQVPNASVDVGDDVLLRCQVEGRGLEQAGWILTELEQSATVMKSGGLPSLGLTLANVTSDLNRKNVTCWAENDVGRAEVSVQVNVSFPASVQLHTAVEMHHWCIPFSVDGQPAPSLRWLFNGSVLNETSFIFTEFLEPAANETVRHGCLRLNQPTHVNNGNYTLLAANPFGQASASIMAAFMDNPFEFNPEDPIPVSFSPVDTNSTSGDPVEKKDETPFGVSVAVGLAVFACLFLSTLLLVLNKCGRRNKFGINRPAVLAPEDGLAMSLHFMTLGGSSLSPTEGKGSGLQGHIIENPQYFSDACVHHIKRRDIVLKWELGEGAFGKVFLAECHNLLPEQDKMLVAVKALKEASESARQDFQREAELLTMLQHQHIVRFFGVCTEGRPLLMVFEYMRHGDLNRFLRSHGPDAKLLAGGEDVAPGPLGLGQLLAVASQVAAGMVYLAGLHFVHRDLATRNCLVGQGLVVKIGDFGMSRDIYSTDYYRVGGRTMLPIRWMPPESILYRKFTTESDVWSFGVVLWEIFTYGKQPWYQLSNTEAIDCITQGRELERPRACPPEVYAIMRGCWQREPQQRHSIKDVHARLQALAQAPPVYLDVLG

Structure (SMILES) | IC50 [nM]
COCCOc1nn(-c2ccccc2)c(NC(=O)N[C@@H]2CN(CC#N)C[C@H]2c2ccc(F)c(F)c2)c1C [Example 187, 1-((3S,4R)-1-(cyanomethyl)-4-(3,4-difluorophenyl)pyrrolidin-3-yl)-3-(3-(2-methoxyethoxy)-4-methyl-1-phenyl-1H-pyrazol-5-yl)urea] | 100 to 1000
Cc1nn(-c2ccccc2)c(NC(=O)N[C@@H]2CN(CCO)C[C@H]2c2ccc(F)c(F)c2)c1C [Example 191, 1-((3S,4R)-4-(3,4-difluorophenyvl)-1-(2-hydroxyethyl)pyrrolidin-3-yl)-3-(3,4-dimethyl-1-phenyl-1H-pyrazol-5-yl)urea] | 100 to 1000
COCCOc1nn(-c2ccccc2)c(NC(=O)N[C@@H]2CN(CC(F)(F)F)C[C@H]2c2cccc(F)c2)c1C [Example 202, 1-((3S,4R)-4-(3-fluorophenyl)-1-(2,2,2-trifluoroethyl)pyrrolidin-3-yl)-3-(3-(2-methoxyethoxy)-4-methyl-1-phenyl-1H-pyrazol-5-yl)urea] | < 100
Cn1nc(-c2ccccc2)cc1NC(=O)N[C@@H]1CN(CC(F)(F)F)C[C@H]1c1cccc(F)c1 [Example 203, 1-((3S,4R)-4-(3-fluorophenyl)-1-(2,2,2-trifluoroethyl)pyrrolidin-3-yl)-3-(1-methyl-3-phenyl-H-pyrazol-5-yl)urea] | 100 to 1000
CCOc1nn(-c2ccccc2)c(NC(=O)N[C@@H]2CN(c3cn[nH]c3)C[C@H]2c2ccc(F)c(F)c2)c1C [Example 216, 1-((3S,4R)-4-(3,4-difluorophenyl)-1-(1H-pyrazol-4-yl)pyrrolidin-3-yl)-3-(3-ethoxy-4-methyl-1-phenyl-1H-pyrazol-5-yl)urea] | < 100
CCOc1nn(-c2ccccc2)c(NC(=O)N[C@@H]2CN(c3cn[nH]c3)C[C@H]2c2cc(F)cc(F)c2)c1C [Example 217, 1-((3S,4R)-4-(3,5-difluorophenyl)-1-(1H-pyrazol-4-yl)pyrrolidin-3-yl)-3-(3-ethoxy-4-methyl-1-phenyl-1H-pyrazol-5-yl)urea] | < 100
CCOc1nn(-c2ccccc2)c(NC(=O)N[C@@H]2CN(c3cc[nH]n3)C[C@H]2c2cc(F)cc(F)c2)c1C [Example 218, 1-((3S,4R)-4-(3,5-difluorophenyvl)-1-(1H-pyrazol-3-yl)pyrrolidin-3-yl)-3-(3-ethoxy-4-methyl-1-phenyl-1H-pyrazol-5-yl)urea] | < 100
CCOc1nn(-c2ccccc2)c(NC(=O)N[C@@H]2CN(c3c[nH]nc3C)C[C@H]2c2ccc(F)c(F)c2)c1C [Example 219, 1-((3S,4R)-4-(3,4-difluorophenyl)-1-(3-methyl-1H-pyrazol-4-yl)pyrrolidin-3-yl)-3-(3-ethoxy-4-methyl-1-phenyl-1H-pyrazol-5-yl)urea] | < 100
CCOc1nn(-c2ccccc2)c(NC(=O)N[C@@H]2CN(c3c[nH]nc3C(F)(F)F)C[C@H]2c2ccc(F)c(F)c2)c1C [Example 220, 1-((3S,4R)-4-(3,4-difluorophenyl)-1-(3-(trifluoromethyl)-1H-pyrazol-4-yl)pyrrolidin-3-yl)-3-(3-ethoxy-4-methyl-1-phenyl-1H-pyrazol-5-yl)urea] | 100 to 1000
Cc1c(OC[C@H](C)O)nn(-c2ccccc2)c1NC(=O)N[C@@H]1CN(c2cn[nH]c2)C[C@H]1c1ccc(F)c(F)c1 [Example 221, 1-((3S,4R)-4-(3,4-difluorophenyl)-1-(1H-pyrazol-4-yl)pyrrolidin-3-yl)-3-(3-((S)-2-hydroxypropoxy)-4-methyl-1-phenyl-1H-pyrazol-5-yl)urea] | < 100
Cc1c(OC[C@H](O)CO)nn(-c2ccccc2)c1NC(=O)N[C@@H]1CN(c2cn[nH]c2)C[C@H]1c1ccc(F)c(F)c1 [Example 222, 1-((3S,4R)-4-(3,4-difluorophenyl)-1-(1H-pyrazol-4-yl)pyrrolidin-3-yl)-3-(3-((R)-2,3-dihydroxypropoxy)-4-methyl-1-phenyl-1H-pyrazol-5-yl)urea] | < 100
Cc1nn(-c2ccccc2)c(NC(=O)N[C@@H]2CN(c3cn[nH]c3)C[C@H]2c2cc(F)cc(F)c2)c1C [Example 223, 1-((3S,4R)-4-(3,5-difluoro-phenyl)-1-(1H-pyrazol-4-yl)pyrrolidin-3-yl)-3-(3,4-dimethyl-1-phenyl-1H-pyrazol-5-yl)urea] | < 100
Cc1nn(-c2ccccc2)c(NC(=O)N[C@@H]2CN(c3cn[nH]c3)C[C@H]2c2ccc(F)c(F)c2)c1C [Example 224, 1-((3S,4R)-4-(3,4-difluorophenyl)-1-(1H-pyrazol-4-yl)pyrrolidin-3-yl)-3-(3,4-dimethyl-1-phenyl-1H-pyrazol-5-yl)urea] | < 100
COCCCc1nn(-c2ccccc2)c(NC(=O)N[C@@H]2CN(c3cn[nH]c3)C[C@H]2c2ccc(F)c(F)c2)c1C [Example 225, 1-((3S,4R)-4-(3,4-difluorophenyl)-1-(1H-pyrazol-4-yl)pyrrolidin-3-yl)-3-(3-(3-methoxypropyl)-4-methyl-1-phenyl-1H-pyrazol-5-yl)urea] | < 100
COCCOc1nn(-c2ccccc2)c(NC(=O)N[C@@H]2CN(c3cn[nH]c3)C[C@H]2c2ccc(F)c(F)c2)c1C [Example 226, 1-((3S,4R)-4-(3,4-difluorophenyl)-1-(1H-pyrazol-4-yl)pyrrolidin-3-yl)-3-(3-(2-methoxyethoxy)-4-methyl-1-phenyl-1H-pyrazol-5-yl)urea] | < 100
Cc1c(OCC(C)(C)O)nn(-c2ccccc2)c1NC(=O)N[C@@H]1CN(c2cn[nH]c2)C[C@H]1c1ccc(F)c(F)c1 [Example 227, 1-((3S,4R)-4-(3,4-difluorophenyl)-1-(1H-pyrazol-4-yl)pyrrolidin-3-yl)-3-(3-(2-hydroxy-2-methylpropoxy)-4-methyl-1-phenyl-1H-pyrazol-5-yl)urea] | < 100

Continued, values first:

IC50 [nM] | Structure (SMILES)
1000 to 10000 | COCCN1C[C@@H](NC(=O)Nc2c3c(nn2-c2ccccc2)CCC3)[C@](O)(c2ccccc2)C1 [Example 180, 1-((3R,4S)-4-hydroxy-1-(2-methoxyethyl)-4-phenylpyrrolidin-3-yl)-3-(2-phenyl-2,4,5,6-tetrahydrocyclopenta[c]pyrazol-3-yl)urea]
100 to 1000 | COCCN1C[C@@H](NC(=O)Nc2c3c(nn2-c2ccccc2)CCC3)[C@](F)(c2ccccc2)C1 [Example 181, 1-((3R,4S)-4-fluoro-1-(2-methoxyethyl)-4-phenylpyrrolidin-3-yl)-3-(2-phenyl-2,4,5,6-tetrahydrocyclopenta[c]pyrazol-3-yl)urea]
1000 to 10000 | CO[C@@H](C)CN1C[C@@H](NC(=O)Nc2c3c(nn2-c2ccccc2)CCC3)[C@H](c2ccccc2)C1 [Example 184, 1-((3S,4R)-1-((S)-2-methoxypropyl)-4-phenylpyrrolidin-3-yl)-3-(2-phenyl-2,4,5,6-tetrahydrocyclopenta[c]pyrazol-3-yl)urea]
100 to 1000 | O=C(Nc1c2c(nn1-c1ccccc1)CCC2)NC1CN(CCCC(F)(F)F)C[C@H]1c1ccccc1 (stereo partly drawn) [Example 185, 1-((3,4-trans)-4-phenyl-1-(4,4,4-trifluorobutyl)pyrrolidin-3-yl)-3-(2-phenyl-2,4,5,6-tetrahydrocyclopenta[c]pyrazol-3-yl)urea]
< 100 | N#CCN1C[C@@H](NC(=O)Nc2c3c(nn2-c2ccccc2)CCC3)[C@H](c2ccc(F)c(F)c2)C1 [Example 186, 1-((3S,4R)-1-(cyanomethyl)-4-(3,4-difluorophenyl)pyrrolidin-3-yl)-3-(2-phenyl-2,4,5,6-tetrahydrocyclopenta[c]pyrazol-3-yl)urea]
100 to 1000 | N#CCN1C[C@@H](NC(=O)Nc2c3c(nn2-c2ccccc2)CCC3)[C@H](c2ccccc2)C1 [Example 188, 1-((3,4-trans)-1-(cyanomethyl)-4-phenylpyrrolidin-3-yl)-3-(2-phenyl-2,4,5,6-tetrahydrocyclopenta[c]pyrazol-3-yl)urea]
100 to 1000 | N#CCN1C[C@@H](NC(=O)Nc2c3c(nn2-c2ccccc2)CCC3)[C@H](c2ccccc2)C1 [Example 189, 1-((3S,4R)-1-(cyanomethyl)-4-phenylpyrrolidin-3-yl)-3-(2-phenyl-2,4,5,6-tetrahydrocyclopenta[c]pyrazol-3-yl)urea]
1000 to 10000 | NC(=O)CN1C[C@@H](NC(=O)Nc2c3c(nn2-c2ccccc2)CCC3)[C@H](c2ccccc2)C1 [Example 190, 2-((3R,4S)-3-phenyl-4-(3-(2-phenyl-2,4,5,6-tetrahydrocyclopenta[c]pyrazol-3-yl)ureido)pyrrolidin-1-yl)acetamide]
100 to 1000 | O=C(Nc1c2c(nn1-c1ccccc1)CCC2)N[C@@H]1CN(CCC(F)(F)C(F)(F)F)C[C@H]1c1ccccc1 [Example 192, 1-((trans)-1-(3,3,4,4,4-pentafluorobutyl)-4-phenlpyrrrolidin-3-yl)-3-(2-phenyl-2,4,5,6-tetrahydrocyclopenta[c]pyrazol-3-yl)urea]
100 to 1000 | O=C(Nc1c2c(nn1-c1ccccc1)CCC2)N[C@@H]1CN(CC(F)(F)F)C[C@H]1c1cccc(F)c1 [Example 200, 1-((3S,4R)-4-(3-fluorophenyl)-1-(2,2,2-trifluoroethyl)pyrrolidin-3-yl)-3-(2-phenyl-2,4,5,6-tetrahydrocyclopenta[c]pyrazol-3-yl)urea]
100 to 1000 | Cc1nn(-c2ccccc2)c(NC(=O)N[C@@H]2CN(CC(F)(F)F)C[C@H]2c2cccc(F)c2)c1C [Example 201, 1-(3,4-dimethyl-1-phenyl-1H-pyrazol-5-yl)-3-((3S,4R)-4-(3-fluorophenyl)-1-(2,2,2-trifluoroethyl)pyrrolidin-3-yl)urea]
< 100 | O=C(Nc1c2c(nn1-c1ccccc1)CCC2)N[C@H]1CN(CC(F)(F)F)C[C@@H]1c1cccc(F)c1 [Example 204, 1-((3R,4S)-4-(3-fluorophenyl)-1-(2,2,2-trifluoroethyl)pyrrolidin-3-yl)-3-(2-phenyl-2,4,5,6-tetrahydrocyclopenta[c]pyrazol-3-yl)urea]
100 to 1000 | O=C(Nc1c2c(nn1-c1ccccc1)CCC2)N[C@@H]1CN(CC(F)(F)F)CC1c1cccnc1 (stereo partly drawn) [Example 213, 1-(2-phenyl-2,4,56-tetrahydrocyclopenta[c]pyrazol-3-yl)-3-((trans)-4-(pyridin-3-v)-1-(2,2,2-trifluoroethyl)pyrrolidin-3-yl)urea]
